Experimental data published in patent publication US20100173879A1, “USE OF A COMPOUND ANTAGONIST TO THE NK2 RECEPTORS OF NEUROKININ A FOR THE PREPARATION OF DRUGS USEFUL FOR PREVENTING AND TREATING OF SEXUAL DYSFUNCTION” (SANOFI-AVENTIS, priority 2007, published 2010).

Test system: male or female adult patients, exhibiting a major depressive disorder
Experiment: Eight-week multicentre double-blind clinical studies versus placebo, CSFQ questionnaire (changes in sexual functioning questionnaire)
Type: in vivo, human
Conditions: 100 mg per day orally for eight weeks
Description: The patients received, orally, a dose of 100 mg per day of saredutant for eight weeks, in the form of gel capsules (Example 2). he effects of saredutant compared with the placebo were evaluated using the CSFQ questionnaire (changes in sexual functioning questionnaire) comprising 14 items according to Clayton A H et al., Psychopharmacol. Bull., 1997, 33, 731-745. It is known that antidepressants have a deleterious effect on the sexual activity of patients (Montejo-Gonzales A L et al.: J. Sex Marital Ther., 1997, 23(3), 176-194). […] The table below indicates, for each group treated, the mean variation relative to the base value before treatment of the total CSFQ score and its variability between parentheses obtained over the analysis of all the studies. An increase in the total CSFQ score corresponds to an improvement in sexual function.

## CC(=O)NC1(c2ccccc2)CCN(CC[C@H](CN(C)C(=O)c2ccccc2)c2ccc(Cl)c(Cl)c2)CC1 [Saredutant, (S)-(−)-N-[4-(4-acetamido-4-phenylpiperidin-1-yl)-2-(3,4-dichlorophenyl)butyl]-N-methylbenzamide]
Versus placebo
  effect on the dysfunctions reduced sexual desire and sexual arousal disorders: beneficial effect
p<0.05
  improvement in the total CSFQ score between the last visit (56th day) and the first visit, in comparison with the placebo group: significant improvement
All patients, n = 553, analysis of all the studies, increase = improvement in sexual function, *p < 0.05 versus placebo (ANCOVA)
  Total CSFQ score, mean variation relative to the base value before treatment (variability between parentheses): 2.23 (0.64)*
